Test results published in publication PMC6736568, “Discovery of Novel Anti-cryptosporidial Activities From Natural Products by in vitro High-Throughput Phenotypic Screening” (Frontiers in Microbiology, 2019).
Where two headings read alike, the source gives them in different places.

How the values were obtained:
Cryptosporidium parvum = experiment: qRT-PCR assay of the growth of C. parvum in vitro in HCT-8 host cells (primary and secondary screening, EC50); type: cell-based; conditions: Cryptosporidium parvum, HCT-8; for inhibition at 10 µM: primary screening at 10 uM, read-out: Inhibition (%); for inhibition at 3.3 µM: secondary screening at 3.3 uM, read-out: % Inhibition (3.3 uM)
[1] = primary screening at 10 uM, treated vs control

Compound	inhibition at 10 µM (Cryptosporidium parvum) [%]	cytotoxicity at 10 µM (in vitro) [%]	Hs18S ΔCT (HCT-8 host cells (Hs18S); [1])	cytotoxicity at 41 h, 10 µM (in vitro; human) [%]	Hs18S ΔCT (HCT-8 host cells (Hs18S); human, 41 h, 10 μM)	Hs18S ΔCT (HCT-8 host cells (Hs18S))	inhibition at 3.3 µM (Cryptosporidium parvum) [%]	cytotoxicity at 41 h, 10 µM (in vitro) [%]
CC1(C)[C@@H](O)CC[C@]2(C)[C@H]3C(=O)C=C4[C@H]5C[C@@](C)(C(=O)O)CC[C@]5(C)CC[C@@]4(C)[C@]3(C)CC[C@@H]12	-12.7	-0.5	-0.01					
CCOc1cccc(C(=O)c2ccc(O)c(O)c2O)c1	-37.2			-31.4	-0.39			
Cc1cc(O)cc(=O)o1	15.4	3.1	0.04					
CC(C)=CCC/C(C)=C/COc1ccc2ccc(=O)oc2c1	3.93	1.2	0.02					
COc1cc(OC)c2c(c1)O[C@H](c1ccc(OC)c(OC)c1)[C@@H](O)C2	17.5	-38.4	-0.47					
COc1ccc2c(c1)OCC(Cc1ccc(OC)c(OC)c1)C2=O (centres unmarked)	20.2	2.4	0.04					
CNc1ccccc1C(=O)O	-14.8	13				0.20		
COc1ccc2c(c1)OC[C@@H](Cc1ccc(OC)c(OC)c1)[C@H]2O	9.9	-6.9	-0.10					
C=CC(C)(O)CCC=C(C)CCC=C(C)C (mixture of isomers) [NEROLIDOL]	-35.5			-12.9	-0.17			
CCCCCCCCCCCCCCCC(=O)OCC(O)CO (centres unmarked) [1-MONOPALMITIN]	14.2			-7.1	-0.10			
O=C(/C=C/c1ccccc1)c1ccc(O[C@@H]2O[C@H](CO)[C@@H](O)[C@H](O)[C@H]2O)cc1O [2',4'-DIHYDROXYCHALCONE 4'-GLUCOSIDE]	-19.5			1.9	0.03			
O=C(/C=C/c1ccccc1)c1ccc(O)cc1O [2',4'-DIHYDROXYCHALCONE]	6.05			6.1	0.09			
COc1ccc(-c2coc3cc(O)ccc3c2=O)c(OC)c1 [2'-METHOXYFORMONETIN]	12.9			11.5	0.18			
CCOc1ccc(C(=O)c2ccc(O)c(O)c2O)cc1 [2,3,4-TRIHYDROXY-4'-ETHOXYBENZOPHENONE]	-43.7			14.4	0.22			
CCOc1ccc(C(=O)c2ccc(OC)c(O)c2O)cc1 [2,3-DIHYDROXY-4-METHOXY-4'-ETHOXYBENZOPHENONE]	39			-8.6	-0.12			
COc1cc(O)c(C)c(O)c1 [2,6-DIHYDROXY-4-METHOXYTOLUENE]	19			4.4	0.06			
COC1=CC(=O)C=C(OC)C1=O [2,6-DIMETHOXYQUINONE]	-5.86	-4.3	-0.06					
CC(=O)c1ccc[nH]1 [2-ACETYLPYRROLE]	22.6			-34.6	-0.43			
COC1=CC(=O)C(C(=O)c2ccccc2)=CC1=O [2-BENZOYL-5-METHOXYBENZOQUINONE]	16.2			-50.7	-0.59			
COc1ccc(C(=O)O)c(O)c1OC [2-HYDROXY-3,4-DIMETHOXYBENZOIC ACID]	7.69			10.5	0.16			
CC1(C)CC2C1CCC1(C)OC1CCC2(C)O (centres unmarked) [2-HYDROXY-5 (6)EPOXY-TETRAHYDROCARYOPHYLLENE]	46.2			-10.9	-0.15			
COC1(C)CCC2OC2(C)CCC2C1CC2(C)C (centres unmarked) [2-METHOXY-5 (6)EPOXY-TETRAHYDROCARYOPHYLLENE]	-24.7			-11.1	-0.15			
COc1c(O)cccc1O [2-METHOXYRESORCINOL]	20.3			-15	-0.20			
Cc1[nH]c2ccccc2c1CN(C)C [2-METHYL GRAMINE]	0.92			-7.5	-0.11			
C=C[C@@H](C1=CC(=O)C(OC)=C(OC)C1=O)c1ccccc1 [3,4-DIMETHOXYDALBERGIONE]	11.6			3.8	0.06			
COc1ccc2c(=O)c(OC)c(-c3ccccc3)oc2c1 [3,7-DIMETHOXYFLAVONE]	49.7			-15.4	-0.21			

Compound	inhibition at 10 µM (Cryptosporidium parvum) [%]	cytotoxicity at 10 µM (in vitro) [%]	Hs18S ΔCT (HCT-8 host cells (Hs18S); [1])	cytotoxicity at 41 h, 10 µM (in vitro; human) [%]	Hs18S ΔCT (HCT-8 host cells (Hs18S); human, 41 h, 10 μM)	Hs18S ΔCT (HCT-8 host cells (Hs18S))	inhibition at 3.3 µM (Cryptosporidium parvum) [%]	cytotoxicity at 41 h, 10 µM (in vitro) [%]
CC1(C)CC2C1CCC1(C)OC2(C)CCC1O (centres unmarked) [3,7-EPOXYCARYOPHYLLAN-6-OL]	12.9			7.2	0.11			
CC12CCC3C(CC3(C)C)C(C)(CCC1=O)O2 (centres unmarked) [3,7-EPOXYCARYOPHYLLAN-6-ONE]	13.1			17	0.27			
COC(=O)C[C@H]1C(C)(C)[C@@H](O)[C@@H]2CC3=C4CC(O)O[C@@H](c5ccoc5)[C@]4(C)CCC3[C@@]1(C)C2=O (stereo partly drawn) [3,16-DIDEOXYMEXICANOLIDE-3beta-DIOL]	87.5			-13.4	-0.18		52	
C=C1C(N)CC2CC1C2(C)C (stereo not drawn) [3-AMINO-beta-PINENE]	19.2			25.3	0.42			
COc1ccc2c(c1)OC[C@@H](Cc1ccc(OC)c(OC)c1)[C@@H]2O [3-DESHYDROXYSAPPANOL TRIMETHYL ETHER]	7.69			3.2	0.05			
O=c1oc2ccccc2cc1O [3-HYDROXYCOUMARIN]	-39.6			-15.7	-0.21			
O=c1c(O)c(-c2ccccc2)oc2ccccc12 [3-HYDROXYFLAVONE]	92.4			-2.7	-0.04		-28	
COc1cccc(O)c1O [3-METHOXYCATECHOL]	-66.7			3.2	0.05			
Cc1cc(O)c(C)c(O)c1C(=O)O [3-METHYLORSELLINIC ACID]	30.8			3.6	0.05			
CC1(C)CC23C(=O)CCC(O)C2(C)CCC13 (centres unmarked) [3-NOR-3-OXOPANASINSAN-6-OL]	23.9			15.3	0.24			
CC1/C(=N/O)C[C@@H]2C[C@H]1C2(C)C (some centres unmarked) [3-PINANONE OXIME]	-6.18			1.5	0.02			
C[C@]12CC[C@@H](O)C[C@H]1CCc1ccccc12 [3alpha-HYDROXY-4,4-BISNOR-8,11,13-PODOCARPATRIENE]	-50.2			-4.1	-0.06			
O=C(/C=C/c1ccccc1)c1ccc(O)cc1 [4'-HYDROXYCHALCONE]	9.45			20.5	0.33			
COc1ccc(C(=O)/C=C/c2ccccc2)cc1 [4'-METHOXYCHALCONE]	20		-0.16	-12				
COc1ccc(-c2cc(=O)c3ccccc3o2)cc1 [4'-METHOXYFLAVONE]	44.4		-0.09	-6.3				
C=CC(C1=CC(=O)C(OC)=CC1=O)c1ccc(OC)cc1 (centres unmarked) [4,4'-DIMETHOXYDALBERGIONE]	-34.2			-0.7	-0.01			
CC(=O)O[C@H]1CC[C@@]2(C)[C@H](CC[C@@H]3[C@@H]2CC[C@]2(C)[C@@H](C4=CC(=O)OC4)[C@@H](OC(C)=O)C[C@]32O)C1 [GITOXIGENIN DIACETATE]		99.8	8.90					
CC(=O)O[C@H]1C[C@H](O[C@H]2[C@@H](O)C[C@H](O[C@H]3[C@@H](O)C[C@H](O[C@H]4CC[C@@]5(C)[C@H](CC[C@@H]6[C@@H]5C[C@@H](O)[C@]5(C)[C@@H](C7=CC(=O)OC7)CC[C@]65O)C4)O[C@@H]3C)O[C@@H]2C)O[C@H](C)[C@H]1O[C@@H]1O[C@H](CO)[C@@H](O)[C@H](O)[C@H]1O [LANATOSIDE C]		99.8	8.93					
C[C@@H]1O[C@@H](O[C@H]2C[C@@H](O)[C@]3(CO)[C@H]4[C@H](O)C[C@]5(C)[C@@H](C6=CC(=O)OC6)CC[C@]5(O)[C@@H]4CC[C@]3(O)C2)[C@H](O)[C@H](O)[C@H]1O [OUABAIN]			11.65					100
CO[C@H]1[C@H](O)[C@H](O[C@H]2CC[C@@]3(C=O)[C@H](CC[C@@H]4[C@@H]3CC[C@]3(C)[C@@H](C5=CC(=O)OC5)CC[C@]43O)C2)O[C@@H](C)[C@@H]1O [PERUVOSIDE]		99.9	10.85					
COc1cc([C@@H]2c3cc4c(cc3[C@H](O)[C@H]3COC(=O)[C@H]23)OCO4)cc(OC)c1OC [PODOFILOX]			5.42					97.7
CC(C)=CCc1c2c(c3occ(-c4ccc(O)c(O)c4)c(=O)c3c1O)C=CC(C)(C)O2 [POMIFERIN]				98.8	6.42			
C[C@@H]1O[C@@H](O[C@@H]2C=C3CC[C@@H]4[C@H](CC[C@]5(C)[C@@H](c6ccc(=O)oc6)CC[C@]45O)[C@@]3(C)CC2)[C@H](O)[C@H](O)[C@H]1O [PROSCILLARIDIN]		100	13.28					
C[C@]12CC[C@H]3[C@@H](CC[C@]4(O)C[C@@H](O)CC[C@]34C=O)[C@@]1(O)CC[C@@H]2C1=CC(=O)OC1 [STROPHANTHIDIN]			11.98	100				
NCCCC(=O)O [gamma-AMINOBUTYRIC ACID]				2.6	0.04			
